From paper PMC7027498, “A small molecule chaperone rescues the stability and activity of a cancer‐associated variant of NAD(P)H:quinone oxidoreductase 1 in vitro” (Febs Letters, 2019) come the findings set out here.

The target of assay [1] is T1, NQO1 WT (NAD(P)H:quinone oxidoreductase 1) (Homo sapiens, UniProt P15559, P187S).
T1 construct: codon-optimised gene in pET28a, E. coli; FAD-containing homodimer
The experiment in a line: isothermal titration calorimetry. Format: binding. The following applies: read-out: dissociation constant. The source says:
(§1) isothermal titration calorimetry on NQO1 WT (NAD(P)H:quinone oxidoreductase 1) | dissociation constants for the binding of BPPSA to the wild‐type and P187S variant

Assay [2] addresses T2, NQO1 WT (NAD(P)H:quinone oxidoreductase 1) (Homo sapiens, UniProt P15559).
T2 construct: codon-optimised gene in pET28a, E. coli; FAD-containing homodimer
The experiment in a line: isothermal titration calorimetry. In kind it is binding. Conditions: read-out: dissociation constant.
Source text: as §1
(In ITC the heat of successive injections is recorded.)

The target in assay [3] is T1, NQO1 WT (NAD(P)H:quinone oxidoreductase 1). The experiment in a line: NADH-menadione reductase assay, absorbance at […] nm. Format: biochemical.
Assay [4] addresses T2, NQO1 WT (NAD(P)H:quinone oxidoreductase 1). The experiment in a line: ThermoFAD thermal shift. In kind it is binding. The following applies: 2 mM BPPSA, 50 mM HEPES pH 7.0.
Assay [5] shares this target. The experiment in a line: NADH-menadione reductase assay, absorbance at […] nm. Format: biochemical.
Assay [6] addresses T1, NQO1 WT (NAD(P)H:quinone oxidoreductase 1). The experiment in a line: ThermoFAD thermal shift. Format: binding. Conditions: 2 mM BPPSA, 50 mM HEPES pH 7.0.
Assay [7] concerns the target T2, NQO1 WT (NAD(P)H:quinone oxidoreductase 1). The experiment in a line: crystal structure, […] Å. In kind it is binding. Conditions: co-crystal with BPPSA; FAD in all four chains.

The term IC50 denotes the concentration at which inhibition is half-maximal. A low value points to greater potency in that assay. With `O=S(=O)(Nc1ccccc1Br)N1CCCC1` [BPPSA, N‐(2‐bromophenyl)pyrrolidine‐1‐sulfonamide], the Kd came to 20 ± 0.41 µM in assay [1] and 7.95 ± 0.8 µM in assay [2]. The values for the IC50 in assay [3] and in assay [5] were 26.2 ± 1.2 µM and 8.6 ± 1.1 µM, respectively. Further, the figures for the “increase in melting temperature” value in assay [4] and in assay [6] were 1 °C and 2.5 °C, respectively.
As to `Cc1cc2nc3c(=O)[nH]c(=O)nc-3n(C[C@H](O)[C@H](O)[C@H](O)COP(=O)(O)OP(=O)(O)OC[C@H]3O[C@@H](n4cnc5c(N)ncnc54)[C@H](O)[C@@H]3O)c2cc1C` [FAD], the “crystal structure, 2.76 Å” value in assay [7] is “Clear residual electron density was observed for FAD bound to each of the four chains”.
